# Assays:
# [1] = system: autistic children; conditions: small double-blind, placebo-controlled study; cited from earlier work
# [2] = system: hyperkinetic children, children with attention deficit disorder (ADD); conditions: in vivo; cited from earlier work
# [3] = system: pediatric patients diagnosed with ADHD combined type; assay: Open-label study of memantine in pediatric ADHD combined type: CGI-ADHD-S; assay type: in vivo, human; conditions: Cohort 2, OC analysis, patients who completed the evaluation, end of 8 weeks; 100% moderately or markedly ill at baseline
# Description: The Clinical Global Impression-ADHD-Severity (CGI-S) is a 7-point scale (1 [not ill] to 7 [extremely ill]) to be assessed by the Investigator at Screening (part 1.1), Baseline, and from two to eight times during Visits 3 to 10, or upon study discontinuation.
# (§1) Design. This clinical trial was conducted as an open-label, single center, dose-finding outpatient study assessing memantine in pediatric patients diagnosed with ADHD combined type (DSM-IV-TR™ criteria). ADHD combined type is characterized by the presence of significant inattentive and hyperactive/impulsive symptomotology.
# (§2) Patient Population. The study enrolled sixteen (16) male or female outpatients between the ages of 6 and 12 years, mean age of 8 years, diagnosed with ADHD combined type by DSM-IV-TR™ criteria based on clinical evaluation and a semi-structured interview, the Schedule for Affective Disorders and Schizophrenia for School-Age Pediatric patients-Present and Lifetime (K-SADS-PL).
# Dosages. Sixteen (16) outpatients with a diagnosis of ADHD combined type received treatment with memantine for a total of 8 weeks. Patients were enrolled in to two groups of 8 patients each, Cohort 1 and Cohort 2. Dose adjustments were permitted for patients experiencing dose-limiting adverse events. […]
# [4] = aqueous media; cited from earlier work
# [5] = cited from earlier work
# [6] = system: patients with neurodegenerative disorders; conditions: cited from earlier work
# [7] = system: pediatric patients diagnosed with ADHD combined type; assay: Open-label ADHD study: overall efficacy, tolerability and patient disposition; assay type: in vivo, human
# Description: (§3) The primary objective of this study was to provide preliminary safety and tolerability evaluations of memantine in pediatric patients with ADHD combined type. The secondary objectives of the study were to evaluate the pharmacokinetics of memantine in this patient population, and to provide preliminary evaluations of efficacy on effect based on a 8-week administration of memantine.
# as §1
# (§4) Dosages. Sixteen (16) outpatients with a diagnosis of ADHD combined type received treatment with memantine for a total of 8 weeks. Patients were enrolled in to two groups of 8 patients each, Cohort 1 and Cohort 2. Dose adjustments were permitted for patients experiencing dose-limiting adverse events. For Cohort 1 patients, treatment consisted of a 4 week titration period from a starting dose of 2.4 mg/day at the start of week 0, to 4.8 mg/day at the start of week 1, to 7.2 mg/day at the start of Week 2 to a maximum dose of 10 mg/day at the start of week 3, with a maintenance dose of 10 mg/day continuing to the end of Week 8. For Cohort 2 patients, treatment consisted of a 4-week titration period from a starting dose of 4.8 mg/day at the start of Week 0, to 10 mg/day at the start of Week 1, to 14.8 mg/day at the start of Week 2, to a maximum dose of 20 mg/day at the start of Week 3, with a maintenance dose of 20 mg/day continuing to the end of Week 8.
# (§5) Patients who missed 2 consecutive visits were discontinued from the study. […] The “Safety Population” consisted of all patients who took at least one dose of study medication. The “Intent-to-Treat (ITT) Population” consisted of all patients in the safety population with at least one post baseline efficacy assessment of ADHD-IV-RS or CGI-ADHD-S. ADHD-IV-RS or CGI-ADHD-S were administered 4 times per patient, once at Screening, once at baseline, once at the end of Week 4 and once at the end of Week 8. […] Those patients unable to tolerate the minimum daily dose after the Week 1 of dosing were discontinued from the study without replacement.
# Adverse events. Adverse event (AE) monitoring was performed at all study visits except Screening, including early termination. An AE is any untoward medical occurrence in a patient or clinical investigation subject administered a pharmaceutical product. It is not necessary that the AE have a causal relationship to treatment with the product.
# An AE therefore is any unfavorable and unintended sign (for example, a clinically significant abnormal laboratory finding) symptom, or disease temporally associated with the use of study medication, whether or not considered related to study medication. […] An AE occurring during the open-label treatment period is counted as a treatment-emergent AE (TEAE) if it is not present prior to the first dose of study medication or if it is present prior to the first dose of study medication but increases in severity following the first dose of study medication.
# The number (percentage) of patients with TEAEs were tabulated by body system and preferred term. Within a specific category (i.e., a specific body system or preferred term), the patient was counted only once if the patient had more than one event reported. […]
# [8] = system: patients with moderate to severe dementia of the Alzheimer's type; conditions: cited from earlier work
# [9] = system: cytochrome P-450 (CYP 450) isoenzymes; conditions: in vitro; cited from earlier work
# [10] = system: NMDA receptor; conditions: uncompetitive antagonist; cited from earlier work
# [11] = system: pediatric patients diagnosed with ADHD combined type; assay: Open-label study of memantine in pediatric ADHD combined type: ADHD-IV-RS; assay type: in vivo, human; conditions: for ADHD-IV-RS change from baseline, Week 4 (mean) / ADHD-IV-RS change from baseline, Week 8 (mean ± SD) / ADHD-IV-RS score, Week 4 (mean ± SD) / ADHD-IV-RS score, Week 8 (mean ± SD) / ADHD-IV-RS change from baseline, Week 4 (mean ± SD): ITT population
# Text: The Attention Deficit/Hyperactivity Disorder Rating Scale, Fourth Edition-Parent Version (ADHD-IV-RS) assesses each of the 18 individual criteria symptoms of ADHD in DSM-IV-TR™ on a severity grid (0=not present, 3=severe; overall minimum score=0, maximum score=54) (DuPaul et al., ADHD Rating Scale-IV: Checklists, Norms, and Clinical Interpretations 1998. New York: The Guilford Press). Inattention symptoms comprise the odd-numbered items, and hyperactive-impulsive symptoms are represented by the even-numbered items. The scale takes approximately 10 to 15 minutes to complete. […] It is to be completed by the patient's parent or legal guardian at Screening (part 1.1), Baseline, and from two to eight times during Visits 3 to 10, or upon study discontinuation.
# as §3, §1, §2, §4, §5
# Efficacy parameters used for evaluation were the ADHD-IV-RS, CGI-ADHD-S, CCPT-II, Woodcock Johnson III reading and math fluency tests, and the Stroop test, described above.
# The primary analysis for each efficacy parameter was based on observed cases. Only patients completing the evaluation were included in the OC analysis, missing data were not imputed. A last observation carried forward (LOCF) analysis was also performed for each efficacy assessment. […]
# [12] = system: autistic spectrum disorders; conditions: in vivo; cited from earlier work
# [13] = system: autism; conditions: in vivo; cited from earlier work
# [14] = Cohort 1 (up to 10 mg/day), LOCF
# [15] = Cohort 2 (up to 20 mg/day), LOCF
compound,measurement,setting,value
"NC12CC3CC(CC(C3)C1)C2 [amantadine, 1-aminoadamantane]",Measures of hyperactivity and irritability,[1],statistically significant improvement
same,Effects in hyperkinetic children and children with ADD,[2],favorable effects
"CC12CC3CC(C)(C1)CC(N)(C3)C2.Cl [memantine, 1-amino-3,5-dimethyladamantane hydrochloride]",CGI-ADHD-S: patients considered borderline or markedly ill,[3],75%
same,Solubility,[4],highly soluble
same,Bioavailability after an oral dose,"[5]; adult humans, oral",100%
same,CSF/serum ratio,[5]; adult humans,0.52
same,Metabolism,[5]; adult humans,minimal
same,"Effect of food, sex or age on pharmacokinetic profile",[5]; in vivo,not affected
same,Safety and tolerability profile,[6]; 2297 patients in 27 clinical trials,acceptable
same,Most common adverse events,"[6]; clinical trials, relatively rare","dizziness, headache, constipation, and confusion"
same,Tolerability in patients with ADHD,"[7]; 8-week open-label treatment, up to 10 or 20 mg/day",well tolerated
same,Patients discontinued for insufficient therapeutic efficacy,"[7]; Cohort 1, 8 patients, all discontinued prior to week 8",7
same,Behavior and symptomology of combined type ADHD (in words),[7]; Cohort 2 (up to 20 mg/day),demonstrated improvements
same,Patients discontinued for insufficient therapeutic efficacy,"[7]; Cohort 2, 8 patients, 4 completed the study",3
same,Efficacy after 8 weeks of treatment (in words),[7]; the 25% of patients completing the study,improvement in two efficacy parameters was observed
same,"Cognitive, functional and global assessments","[8]; 2 US studies, outpatients ages 50-93, moderate to severe Alzheimer's dementia",significant improvement
same,Care dependency and global change relative to placebo,"[8]; study 9403, Latvian nursing home patients, Alzheimer's disease or vascular dementia (MMSE<10)",significant improvement
same,Inhibition of CYP 450 isoenzymes,[9],does not inhibit
same,Affinity for the NMDA receptor,[10],low to moderate
same,"ADHD-IV-RS change from baseline, Week 4 (mean)",[11]; [14],−3.3
same,"ADHD-IV-RS change from baseline, Week 8 (mean ± SD)",[11]; [14],−3.8 ± 2.31
same,"ADHD-IV-RS score, Week 4 (mean ± SD)",[11]; [14],42.8 ± 8.33
same,"ADHD-IV-RS score, Week 8 (mean ± SD)",[11]; [14],40.9 ± 8.53
same,"ADHD-IV-RS change from baseline, Week 4 (mean ± SD)","[11]; Cohort 1 (up to 10 mg/day), OC",−3.5 ± 2.38
same,"ADHD-IV-RS score, Week 4 (mean ± SD)","[11]; Cohort 1 (up to 10 mg/day), OC",42.8 ± 8.33
same,"ADHD-IV-RS change from baseline, Week 4 (mean)",[11]; [15],−10.9
same,"ADHD-IV-RS change from baseline, Week 8 (mean ± SD)",[11]; [15],−9 ± 10.00
same,"ADHD-IV-RS score, Week 4 (mean ± SD)",[11]; [15],31.3 ± 13.05
same,"ADHD-IV-RS score, Week 8 (mean ± SD)",[11]; [15],32.9 ± 12.76
same,"ADHD-IV-RS change from baseline, Week 4 (mean ± SD)","[11]; Cohort 2 (up to 20 mg/day), OC",−11. ± 59.65
same,"ADHD-IV-RS change from baseline, Week 8 (mean ± SD)","[11]; Cohort 2 (up to 20 mg/day), OC",−16.5 ± 8.19
same,"ADHD-IV-RS score, Week 4 (mean ± SD)","[11]; Cohort 2 (up to 20 mg/day), OC",29.5 ± 13.32
same,"ADHD-IV-RS score, Week 8 (mean ± SD)","[11]; Cohort 2 (up to 20 mg/day), OC",22.3 ± 8.66
same,Effect on ADHD-IV-RS (in words),"[11]; Cohort 2, end of 8 weeks, OC analysis",showed improvement
Cc1nc2n(c(=O)c1CCN1CCC(c3noc4cc(F)ccc34)CC1)CCCC2 [risperidone],Adverse effects associated with treatment,[12],"weight gain, increased appetite, fatigue, drowsiness, tremor and drooling"
secretin: a synthetic form of the natural human hormone secretin developed by RepliGen for the potential treatment of autism,Autistic behavior compared to placebo,[13],did not demonstrate significant improvement
